Measurements reported in US6339146B1, “Cycloalkylated beta-glucoside” (Nikon Shokuhin Kako Co., Ltd., priority 1999, dated 2002).

Columns and labels:
[1] = system: β-glucosidase derived from Almond; experiment: β-Glucosidase inhibition test (pNP-β-Glc hydrolysis); format: biochemical; conditions: for Activity ratio (pNP-β-glucosidase activity): Almond enzyme, cycloalkyl glucoside 1 mM (table title), no inhibitor = 1.00, pH 5.0, 40° C., 10 minutes
Experimental: (§1) β-Glucosidase inhibition test was performed as follows. 10 mM p-nitrophenyl-β-glucoside (100 μl, abbreviated as pNP-β-Glc hereinafter), 1 M sodium acetate buffer (pH 5.0, 50 μl), pure water, and 100 mM inhibitor (10 μl) were taken into a short test tube so that the mixture should have a total volume of […], and preincubated at 40° C. for 5 minutes. After the incubation, the obtained mixture was added with 50 μl of enzyme solution diluted to a suitable concentration, and allowed to react at 40° C. After 10 minutes, the enzyme was inactivated by adding 500 μl of 1 M sodium carbonate to the obtained reaction mixture, and the absorbance at 405 nm was measured and used for calculation of the amount of free p-nitrophenol. As the inhibitor, cyclopropylmethyl-β-glucoside (CPAM-β-Glc), cyclopentyl-β-glucoside (CPE-β-Glc), and cyclopentylmethyl-β-glucoside (CPEM-β-Glc) all prepared by the methods of Examples 1 and 2were used. As the β-glucosidase, chromatographically purified preparations derived from Aspergillus niger, Trichoderma viride, and Almond (all from SIGMA) were used.

[2] = target: β-glucosidase derived from Aspergillus niger (Aspergillus niger, UniProt A2RAL4); experiment: as above; format: biochemical; conditions: for Activity ratio (pNP-β-glucosidase activity): cycloalkyl glucoside 1 mM (table title), no inhibitor = 1.00, pH 5.0, 40° C., 10 minutes
Experimental: as §1

[3] = target: β-glucosidase derived from Trichoderma viride (Trichoderma viride, UniProt Q6UJY0); experiment: as above; format: biochemical; conditions: T. viride enzyme
Experimental: as §1

[4] = system: rose petal crude enzyme solution (pNP-β-Glc activity); experiment: Inhibition test for rose crude enzyme (pNP-β-Glc activity); format: biochemical, Rosa gybrida CV. Wendy
Experimental: as §1
Only petals (about 70 g) were collected from about ten marketed roses (variety; Rosa gybrida CV. Wendy), added with acetone (500 ml) cooled to −20° C., and pulverized by a homogenizer while cooled with dry ice. The obtained pulverized mixture was filtered through a Buchner funnel put with a No. 2 filter paper sheet, and sufficiently washed with acetone at −20° C. The obtained filtrate was dried in a desiccator under reduced pressure (room temperature, 3 hours) to obtain 6 g of crude enzyme powder. This powder was added to 100 mM sodium phosphate buffer (pH 7.0, 120 ml) and stirred at 4° C. for 3 hours, and the insoluble matter was removed by centrifugation. The filtrate was subjected to ultrafiltration utilizing an ultrafiltration membrane PM-10 (Amicon) to finally afford 15 ml of crude enzyme solution.
In the same manner as in Example 3, the inhibition activity of the CPEM-β-Glc obtained in Example 2 for the pNP-β-Glc activity of the above crude enzyme solution was measured. […]

gypsophila cut flowers = experiment: Aromatic substance formation inhibition effect in cut flowers (organoleptic test); format: in vivo; conditions: 0.13% (w/v, 5 mM) aqueous solution
Experimental: (§2) A 0.13% (w/v, 5 mM) aqueous solution of the CPEM-β-Glc obtained in Example 2 was prepared. The obtained aqueous solution (300 ml) was introduced into an Erlenmeyer flask, and lily, chrysanthemum, and gypsophila were put into it one for each. On the other hand, as control, the flowers were similarly put into water without the CPEM-β-Glc. After 1, 2 and 4 days, organoleptic test was performed by ten expert panelists as for the aroma emitted from these cut flowers.

lily cut flowers = experiment: as above; format: in vivo; conditions: 0.13% (w/v, 5 mM) aqueous solution
Experimental: as §2

[5] = system: chrysanthemum cut flowers; experiment: as above; format: in vivo; conditions: 0.13% (w/v, 5 mM) aqueous solution
Experimental: as §2

[6] = cycloalkyl glucoside 1 mM (table title), no inhibitor = 1.00, pH 5.0, 40° C., 10 minutes

## OC[C@H]1O[C@@H](OC2CCCC2)[C@H](O)[C@@H](O)[C@@H]1O [CPE-β-Glc, cyclopentyl-β-glucoside]
[1]
  Activity ratio (pNP-β-glucosidase activity): 0.90
[2]; A. niger enzyme
  Activity ratio (pNP-β-glucosidase activity): 0.92
[3]; [6]
  Activity ratio (pNP-β-glucosidase activity): 1.06

## OC[C@H]1O[C@@H](OCC2CC2)[C@H](O)[C@@H](O)[C@@H]1O [CPAM-β-Glc, cyclopropylmethyl-β-glucoside]
[1]
  Activity ratio (pNP-β-glucosidase activity): 0.86
[2]; A. niger enzyme
  Activity ratio (pNP-β-glucosidase activity): 0.94
[3]; [6]
  Activity ratio (pNP-β-glucosidase activity): 1.01

## OCC1OC(OCC2CCCC2)C(O)C(O)C1O (stereo not drawn) [CPEM-β-Glc, cyclopentylmethyl-β-glucoside]
[4]; at 3 mM
  Inhibition activity for pNP-β-Glc activity of rose crude enzyme: about 50%
[4]; at 4 mM
  Inhibition activity for pNP-β-Glc activity of rose crude enzyme: about 70%
[4]; at 5 mM
  Inhibition activity for pNP-β-Glc activity of rose crude enzyme: about 90%
Gypsophila cut flowers; added versus not added
  Freshness of the cut flowers: No difference
Gypsophila cut flowers; after one day, versus water
  Aroma emitted from cut flowers (organoleptic test, ten expert panelists): distinctly reduced
Lily cut flowers; added versus not added
  Freshness of the cut flowers: No difference
Lily cut flowers; after one day, versus water
  Aroma emitted from cut flowers (organoleptic test, ten expert panelists): distinctly reduced
[5]; added versus not added
  Freshness of the cut flowers: No difference
[5]; after one day, versus water
  Aroma emitted from cut flowers (organoleptic test, ten expert panelists): distinctly reduced
[1]
  Activity ratio (pNP-β-glucosidase activity): 0.27
[1]; almond enzyme, inhibitor concentration of 1.25 mM
  Inhibition of β-glucosidase (in words): strongly inhibited
[1]; ratio of 50% inhibition concentrations
  Difference in 50% inhibition concentration, almond versus A. niger and T. viride β-glucosidases: about 70 times
[1]; β-glucosidase derived from almond, concentration varied from 0 to 5 mM, read-out: 50% inhibition concentration
  IC50: 170 µM
[2]; 10 min, pH 5, read-out: Activity ratio (pNP-β-glucosidase activity)
  activity at 1000 µM: 99%
[2]; A. niger enzyme, inhibitor concentration of 1.25 mM
  Inhibition of β-glucosidase (in words): relatively weak inhibition
[3]; 10 min, cycloalkyl glucoside 1 mM (table title), no inhibitor = 1.00, pH 5.0, 40° C., 10 minutes, read-out: Activity ratio (pNP-β-glucosidase activity)
  activity at 1000 µM: 105%
[3]; inhibitor concentration of 1.25 mM
  Inhibition of β-glucosidase (in words): no inhibition
